This passage reports EC50 results from US20160271263A1 (Novo Nordisk A/S, priority 2010, published 2016).

Each structure is given as a SMILES string. Numbered stars: 1 amine (or outer) side, 2 acyl side, 3 side chain; on linkers, the order of the positions; unused ones are H or OH. Square brackets hold non-standard residues; d marks the D form. Side chains are listed from the residue outwards. Peptide text beside a SMILES is read from it. * marks the point of attachment. C18 diacid = O=C(O)CCCCCCCCCCCCCCCCC(=O)*; γGlu = O=C(O)[C@H](CCC(=O)[*:2])N[*:1]; AEEA = NCCOCCOCC(=O)O; Aib = CC(C)(N)C(=O)O

The target of this test is glucagon receptor (Homo sapiens, UniProt P47871). Put plainly: cell-based.
Chain of glucagon receptor (P47871 26-477): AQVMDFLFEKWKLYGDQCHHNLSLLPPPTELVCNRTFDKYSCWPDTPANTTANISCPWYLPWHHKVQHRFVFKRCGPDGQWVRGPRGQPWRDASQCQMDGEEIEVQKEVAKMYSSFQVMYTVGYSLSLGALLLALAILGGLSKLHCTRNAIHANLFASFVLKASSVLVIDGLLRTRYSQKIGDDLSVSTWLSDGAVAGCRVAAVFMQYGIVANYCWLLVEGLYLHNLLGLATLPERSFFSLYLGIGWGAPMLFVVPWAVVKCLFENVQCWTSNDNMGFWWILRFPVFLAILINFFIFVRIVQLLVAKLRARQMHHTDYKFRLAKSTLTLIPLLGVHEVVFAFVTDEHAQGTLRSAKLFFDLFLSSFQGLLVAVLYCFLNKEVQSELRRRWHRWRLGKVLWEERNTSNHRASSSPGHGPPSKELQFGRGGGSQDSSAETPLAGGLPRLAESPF
For orientation: EC50 means the midpoint of the concentration-response curve. Take `CC(C)C[C@H](NC(=O)[C@H](Cc1ccc(O)cc1)NC(=O)[C@H](CCCCN)NC(=O)[C@H](CO)NC(=O)[C@H](Cc1ccc(O)cc1)NC(=O)[C@H](CC(=O)O)NC(=O)[C@H](CO)NC(=O)[C@@H](NC(=O)[C@H](Cc1ccccc1)NC(=O)[C@@H](NC(=O)CNC(=O)[C@H](CCC(N)=O)NC(=O)[C@H](CO)NC(=O)[C@@H](N)Cc1c[nH]cn1)[C@@H](C)O)[C@@H](C)O)C(=O)N[C@@H](CC(=O)O)C(=O)N[C@@H](CCCCNC(=O)COCCOCCNC(=O)COCCOCCNC(=O)CC[C@H](NC(=O)CCCCCCCCCCCCCCCCC(=O)O)C(=O)O)C(=O)N[C@@H](CCCCN)C(=O)N[C@@H](CCCNC(=N)N)C(=O)N[C@@H](C)C(=O)N[C@@H](CCC(N)=O)C(=O)N[C@@H](CCC(=O)O)C(=O)N[C@@H](Cc1ccccc1)C(=O)N[C@H](C(=O)N[C@@H](CCC(N)=O)C(=O)N[C@@H](Cc1c[nH]c2ccccc12)C(=O)N[C@@H](CC(C)C)C(=O)N[C@@H](CC(C)C)C(=O)N[C@@H](CC(N)=O)C(=O)N[C@H](C(N)=O)[C@@H](C)O)C(C)C` [Example 34, N^ε16-([2-[2-[2-[[2-[2-[2-[[(4S)-5-hydroxy-4-[(18-hydroxy-18-oxooctadecanoyl)amino]-5-oxopentanoyl]amino]ethoxy]ethoxy]acetyl]amino]ethoxy]ethoxy]acetyl])[Lys^16,Lys^17,Glu^21, Leu^27] Glucagon peptide amide] (H-HSQGTFTSDYSKYLDK([AEEA-AEEA-γGlu-C18 diacid])KRAQEFVQWLLNT-NH2; N-terminus assumed): the EC50 stood at 0.018 nM.
`CC(C)C[C@H](NC(=O)[C@H](Cc1ccc(O)cc1)NC(=O)[C@H](CCCCN)NC(=O)[C@H](CO)NC(=O)[C@H](Cc1ccc(O)cc1)NC(=O)[C@H](CC(=O)O)NC(=O)[C@H](CO)NC(=O)[C@@H](NC(=O)[C@H](Cc1ccccc1)NC(=O)[C@@H](NC(=O)CNC(=O)[C@H](CCC(N)=O)NC(=O)[C@H](CO)NC(=O)[C@@H](N)Cc1c[nH]cn1)[C@@H](C)O)[C@@H](C)O)C(=O)N[C@@H](CC(=O)O)C(=O)N[C@@H](CO)C(=O)N[C@@H](CCCNC(=N)N)C(=O)N[C@@H](CCCCNC(=O)COCCOCCNC(=O)COCCOCCNC(=O)CC[C@H](NC(=O)CCCCCCCCCCCCCCCCC(=O)O)C(=O)O)C(=O)N[C@@H](C)C(=O)N[C@@H](CCC(N)=O)C(=O)N[C@@H](CC(=O)O)C(=O)N[C@@H](Cc1ccccc1)C(=O)N[C@H](C(=O)N[C@@H](CCC(N)=O)C(=O)N[C@@H](Cc1c[nH]c2ccccc12)C(=O)N[C@@H](CC(C)C)C(=O)N[C@@H](CC(C)C)C(=O)N[C@@H](CC(N)=O)C(=O)N[C@H](C(=O)O)[C@@H](C)O)C(C)C` [Example 18] (H-HSQGTFTSDYSKYLDSRK([AEEA-AEEA-γGlu-C18 diacid])AQDFVQWLLNT-OH; N-terminus and C-terminus assumed): it took 0.206 nM to reach a half-maximal effect (EC50).
Consider `CSCC[C@H](NC(=O)[C@H](CC(C)C)NC(=O)[C@H](Cc1c[nH]c2ccccc12)NC(=O)[C@H](CCC(N)=O)NC(=O)[C@@H](NC(=O)[C@H](Cc1ccccc1)NC(=O)[C@H](CC(=O)O)NC(=O)[C@H](CCCNC(=N)N)NC(=O)[C@H](C)NC(=O)[C@H](C)NC(=O)[C@H](CCC(N)=O)NC(=O)[C@H](CCC(=O)O)NC(=O)[C@H](CC(=O)O)NC(=O)[C@H](CC(C)C)NC(=O)[C@H](Cc1ccc(O)cc1)NC(=O)[C@H](CCCCN)NC(=O)[C@H](CO)NC(=O)[C@H](Cc1ccc(O)cc1)NC(=O)[C@H](CC(=O)O)NC(=O)[C@H](CO)NC(=O)[C@@H](NC(=O)[C@H](Cc1ccccc1)NC(=O)[C@@H](NC(=O)CNC(=O)[C@H](CCC(N)=O)NC(=O)[C@H](CO)NC(=O)[C@@H](N)Cc1c[nH]cn1)[C@@H](C)O)[C@@H](C)O)C(C)C)C(=O)N[C@@H](CC(N)=O)C(=O)N[C@H](C(=O)N[C@@H](CCCCNC(=O)COCCOCCNC(=O)COCCOCCNC(=O)CC[C@H](NC(=O)CCCCCCCCCCCCCCCCC(=O)O)C(=O)O)C(N)=O)[C@@H](C)O` [Example 27, N^α ([Glu^16,Gln^17,Ala^18,Arg^20]Glucagonyl) N^ε-([2-[2-[2-[[2-[2-[2-[[(4S)-5-hydroxy-4-[(18-hydroxy-18-oxooctadecanoyl)amino]-5-oxopentanoyl]amino]ethoxy]ethoxy]acetyl]amino]ethoxy]ethoxy]acetyl]) Lysinyl amide] (H-HSQGTFTSDYSKYLDEQAARDFVQWLMNTK([AEEA-AEEA-γGlu-C18 diacid])-NH2; N-terminus assumed), for which the EC50 turned out to be 0.406 nM. This EC50 lies about 2-fold higher than the previous one.
Take `CC(C)C[C@H](NC(=O)[C@H](Cc1ccc(O)cc1)NC(=O)[C@H](CCCCN)NC(=O)[C@H](CO)NC(=O)[C@H](Cc1ccc(O)cc1)NC(=O)[C@H](CC(=O)O)NC(=O)[C@H](CO)NC(=O)[C@@H](NC(=O)[C@H](Cc1ccccc1)NC(=O)[C@@H](NC(=O)CNC(=O)[C@H](CCC(N)=O)NC(=O)[C@@H](CO)NC(=O)[C@@H](N)Cc1c[nH]cn1)[C@@H](C)O)[C@@H](C)O)C(=O)N[C@@H](CC(=O)O)C(=O)N[C@@H](CCC(=O)O)C(=O)N[C@@H](CCCNC(=N)N)C(=O)N[C@@H](CCCNC(=N)N)C(=O)N[C@@H](C)C(=O)N[C@@H](CCC(N)=O)C(=O)N[C@@H](CC(=O)O)C(=O)N[C@@H](Cc1ccccc1)C(=O)N[C@H](C(=O)N[C@@H](CCCCNC(=O)COCCOCCNC(=O)COCCOCCNC(=O)CC[C@H](NC(=O)CCCCCCCCCCCCCCCCC(=O)O)C(=O)O)C(=O)N[C@@H](Cc1c[nH]c2ccccc12)C(=O)N[C@@H](CC(C)C)C(=O)N[C@@H](CC(C)C)C(=O)N[C@@H](CC(N)=O)C(=O)N[C@H](C(=O)O)[C@@H](C)O)C(C)C` [Example 2] (H-H[dS]QGTFTSDYSKYLDERRAQDFVK([AEEA-AEEA-γGlu-C18 diacid])WLLNT-OH; N-terminus and C-terminus assumed): the EC50 worked out at 0.149 nM.
Consider `CC(C)C[C@H](NC(=O)[C@H](Cc1ccc(O)cc1)NC(=O)[C@H](CCCCN)NC(=O)[C@H](CO)NC(=O)[C@H](Cc1ccc(O)cc1)NC(=O)[C@H](CC(=O)O)NC(=O)[C@H](CO)NC(=O)[C@@H](NC(=O)[C@H](Cc1ccccc1)NC(=O)[C@@H](NC(=O)CNC(=O)[C@H](CCC(N)=O)NC(=O)[C@H](CO)NC(=O)[C@@H](N)Cc1c[nH]cn1)[C@@H](C)O)[C@@H](C)O)C(=O)N[C@@H](CC(=O)O)C(=O)N[C@@H](CO)C(=O)N[C@@H](CCCNC(=N)N)C(=O)N[C@@H](CCCNC(=N)N)C(=O)N[C@@H](C)C(=O)N[C@@H](CCC(N)=O)C(=O)N[C@@H](CCC(=O)O)C(=O)N[C@@H](Cc1ccccc1)C(=O)N[C@H](C(=O)N[C@@H](CCCCNC(=O)COCCOCCNC(=O)COCCOCCNC(=O)CC[C@H](NC(=O)CCCCCCCCCCCCCCCCC(=O)O)C(=O)O)C(=O)N[C@@H](CCCNC(=N)N)C(=O)N[C@@H](CC(C)C)C(=O)N[C@@H](CC(C)C)C(=O)N[C@@H](CC(N)=O)C(=O)N[C@H](C(=O)O)[C@@H](C)O)C(C)C` [Example 58, N^ε24-([2-[2-[2-[[2-[2-[2-[[(4S)-5-hydroxy-4-[(18-hydroxy-18-oxooctadecanoyl)amino]-5-oxopentanoyl]amino]ethoxy]ethoxy]acetyl]amino]ethoxy]ethoxy]acetyl]) [Glu^21,Lys^24,Arg^25,Leu^27] Glucagon], for which a half-maximal response (EC50) required 0.074 nM.
As for `CC(C)C[C@H](NC(=O)[C@H](Cc1ccc(O)cc1)NC(=O)[C@H](CCCCN)NC(=O)[C@H](CO)NC(=O)[C@H](Cc1ccc(O)cc1)NC(=O)[C@H](CC(=O)O)NC(=O)[C@H](CO)NC(=O)[C@@H](NC(=O)[C@H](Cc1ccccc1)NC(=O)[C@@H](NC(=O)CNC(=O)[C@H](CCC(N)=O)NC(=O)C(C)(C)NC(=O)[C@@H](N)Cc1c[nH]cn1)[C@@H](C)O)[C@@H](C)O)C(=O)N[C@@H](CC(=O)O)C(=O)N[C@@H](CCCCNC(=O)COCCOCCNC(=O)COCCOCCNC(=O)CC[C@H](NC(=O)CCCCCCCCCCCCCCCCC(=O)O)C(=O)O)C(=O)N[C@@H](CCCCN)C(=O)N[C@@H](CCCNC(=N)N)C(=O)N[C@@H](C)C(=O)N[C@@H](CCC(N)=O)C(=O)N[C@@H](CCC(=O)O)C(=O)N[C@@H](Cc1ccccc1)C(=O)N[C@H](C(=O)N[C@@H](CCC(N)=O)C(=O)N[C@@H](Cc1c[nH]c2ccccc12)C(=O)N[C@@H](CC(C)C)C(=O)N[C@@H](CC(C)C)C(=O)N[C@@H](CC(N)=O)C(=O)N[C@H](C(N)=O)[C@@H](C)O)C(C)C` [Example 39, N^ε16-([2-[2-[2-[[2-[2-[2-[[(4S)-5-hydroxy-4-[(18-hydroxy-18-oxooctadecanoyl)amino]-5-oxopentanoyl]amino]ethoxy]ethoxy]acetyl]amino]ethoxy]ethoxy]acetyl]) [Aib^2, Lys^16, Lys^17, Glu^21,Leu^27] Glucagon peptide amide] (H-H[Aib]QGTFTSDYSKYLDK([AEEA-AEEA-γGlu-C18 diacid])KRAQEFVQWLLNT-NH2; N-terminus assumed), a half-maximal effect (EC50) was put at 0.007 nM.
As for `CC(C)C[C@H](NC(=O)[C@H](Cc1ccc(O)cc1)NC(=O)[C@H](CCCCN)NC(=O)[C@H](CO)NC(=O)[C@H](Cc1ccc(O)cc1)NC(=O)[C@H](CC(=O)O)NC(=O)[C@H](CO)NC(=O)[C@@H](NC(=O)[C@H](Cc1ccccc1)NC(=O)[C@@H](NC(=O)CNC(=O)[C@H](CCC(N)=O)NC(=O)[C@H](CO)NC(=O)[C@@H](N)Cc1c[nH]cn1)[C@@H](C)O)[C@@H](C)O)C(=O)N[C@@H](CC(=O)O)C(=O)N[C@@H](CO)C(=O)N[C@@H](CCCCN)C(=O)N[C@@H](CCCNC(=N)N)C(=O)N[C@@H](C)C(=O)N[C@@H](CCC(N)=O)C(=O)N[C@@H](CCC(=O)O)C(=O)N[C@@H](Cc1ccccc1)C(=O)N[C@H](C(=O)N[C@@H](CCC(N)=O)C(=O)N[C@@H](Cc1c[nH]c2ccccc12)C(=O)N[C@@H](CC(C)C)C(=O)N[C@@H](CC(C)C)C(=O)N[C@@H](CC(N)=O)C(=O)N[C@H](C(=O)N[C@@H](CCCCNC(=O)COCCOCCNC(=O)COCCOCCNC(=O)CC[C@H](NC(=O)CCCCCCCCCCCCCCCCC(=O)O)C(=O)O)C(N)=O)[C@@H](C)O)C(C)C` [Example 42, N^α-([Lys^17, Glu^21, Leu^27] Glucagonyl) N^ε-([2-[2-[2-[[2-[2-[2-[[(4S)-5-hydroxy-4-[(18-hydroxy-18-oxooctadecanoyl)amino]-5-oxopentanoyl]amino]ethoxy]ethoxy]acetyl]amino]ethoxy]ethoxy]acetyl]) Lysinyl amide] (H-HSQGTFTSDYSKYLDSKRAQEFVQWLLNTK([AEEA-AEEA-γGlu-C18 diacid])-NH2; N-terminus assumed), the EC50 turned out to be 0.017 nM. Compared with the last molecule, the EC50 is about 2.4-fold higher.
